From PubChem BioAssay AID1996 come the findings set out here.

In brackets after ≈: the same amount, converted by molar mass.

For this data set the following is noted: buffer; pH 7.4; 200.0 µM.
With `COc1ccc(C(=O)NC23CC4CC(CC(C4)C2)C3)cc1`, the solubility (kinetic) (usually the concentration staying in solution when a stock, usually in DMSO, is diluted into the medium) was found to be 1 µg/mL (≈ 3.5 µM).

Compound `Cc1ccc(S(=O)(=O)c2ccc([N+](=O)[O-])cn2)cc1` had a kinetic solubility of 21 µg/mL (≈ 75.5 µM).

`CC1=C(C)C(OCCBr)N(c2cc(O)c(Cl)cc2F)C1=O` (stereo unspecified) showed a kinetic solubility greater than 56.8 µg/mL.

The compound `O=C(OCC(=O)N1CCCC1)c1c[nH]c2ccccc12` displayed a solubility (kinetic) greater than 40.8 µg/mL.

`O=C(CN1C(=O)C2CC=CCC2C1=O)N1CCN(S(=O)(=O)c2ccccc2)CC1` (stereo unspecified): the solubility (kinetic) is greater than 62.6 µg/mL.

`O=C(NCc1ccccc1)c1ccc(F)c(F)c1` yielded a solubility (kinetic) of 35.5 µg/mL (≈ 144 µM).

`CC(C)(C)C(=O)CN1C(=O)NC2(CCCc3ccccc32)C1=O` (stereo unspecified) had a solubility (kinetic) greater than 47.2 µg/mL.

`COC(=O)c1ccc(OC(=O)c2ccncc2)cc1O`: the kinetic solubility was greater than 41 µg/mL.

In turn, `O=c1oc(Nc2cccc(Cl)c2)nc2ccccc12` returned a kinetic solubility of 0.5 µg/mL (≈ 1.83 µM).

Compound `CSCC(=O)Nc1cc(C)on1` gave a solubility (kinetic) greater than 27.9 µg/mL.

Take `COc1ccc(-c2nc(C)c(C(C)=O)n2O)cc1[N+](=O)[O-]`: the solubility (kinetic) came out at 42.3 µg/mL (≈ 145 µM).

Consider `Cc1cccc(C)c1NC(=O)[C@@]1(CC(=O)O)CC(/C=C/c2ccccc2)=NO1`, for which the kinetic solubility is greater than 56.8 µg/mL.

As to `CCOc1ccc(N(C(=O)C2CCCO2)C2C=CS(=O)(=O)C2)cc1` (stereo unspecified), the kinetic solubility was greater than 52.7 µg/mL.

Regarding `O=C1NCCN/C1=C\C(=O)c1ccc(F)cc1`, the solubility (kinetic) came to 32.5 µg/mL (≈ 139 µM).

For `Cc1ccc2nc(N3CCOCC3)c(C=O)c(=O)n2c1`, the solubility (kinetic) was greater than 41 µg/mL.

Regarding `CCOC(=O)c1ccc(S(=O)(=O)NC2CC2)cc1`, the kinetic solubility came out at 32.4 µg/mL (≈ 120 µM).

`Cc1ccc(C)c(N2CCN(c3ncccc3[N+](=O)[O-])CC2)c1`: the solubility (kinetic) was determined as 1.1 µg/mL (≈ 3.52 µM).

In the case of `CCC1CN(C(=O)NCc2ccccc2)c2cc(Cl)ccc2O1` (stereo unspecified), the kinetic solubility is less than 0.4 µg/mL.

Turning to `O=C(c1ccncc1)N1CCN(c2ccc3ccccc3n2)CC1`, the solubility (kinetic) is greater than 47.8 µg/mL.

As for `CC1(C)C2CCC1(C)C(OC(=O)C[n+]1ccccc1N)C2.[Br-]` (stereo unspecified), the solubility (kinetic) was greater than 55.4 µg/mL.

Regarding `Cl.O=C(NCCCn1ccnc1)c1ccc(F)cc1`, the solubility (kinetic) is greater than 42.6 µg/mL.

The compound `Cc1c(C(=O)O)cccc1-c1ccc(/C=C2\SC(=O)NC2=O)o1` yielded a solubility (kinetic) greater than 49.4 µg/mL.

`Cn1c(N)c(C(=O)COC(=O)COc2cccc(Br)c2)c(=O)n(C)c1=O` registered a kinetic solubility of 11.3 µg/mL (≈ 26.5 µM).

As for `COc1ccc(C(=O)NCCCn2ccnc2)cc1[N+](=O)[O-]`, the kinetic solubility was greater than 45.6 µg/mL.

In turn, `CCOc1ccc(N2CC(C(=O)N3CCc4ccccc43)CC2=O)cc1` (stereo unspecified) displayed a solubility (kinetic) of 4.5 µg/mL (≈ 12.8 µM).

As for `C/C(=C/C#N)Nc1ccc(C)cc1`, the solubility (kinetic) is greater than 25.8 µg/mL.

Regarding `O=C(Nc1c(O)c2ccccc2[nH]c1=O)c1ccco1`, the solubility (kinetic) was greater than 40.5 µg/mL.

Regarding `CC(=O)c1ccc(S(=O)(=O)Nc2ccc3c(c2)OCO3)cc1`, the solubility (kinetic) is greater than 47.9 µg/mL.

As to `COc1cc2ccccc2cc1C(=O)Nc1ccc(C)cc1`, the solubility (kinetic) is 2.3 µg/mL (≈ 7.89 µM).

As to `OCC1(Cc2ccccc2)CCN(Cc2cc3ccccc3o2)CC1`, the kinetic solubility is greater than 50.3 µg/mL.

Turning to `CCCCn1c(N)c(N(CCOC)C(=O)c2ccc3c(c2)C(=O)N(c2ccccc2Cl)C3=O)c(=O)[nH]c1=O`, the kinetic solubility was greater than 81 µg/mL.

As to `Cc1ccccc1NC(=O)N1CCCN(c2ccc(C#N)cn2)CC1`, the solubility (kinetic) is greater than 50.3 µg/mL.

Take `CC1=C/C(=N\OS(=O)(=O)c2ccccc2)C=CC1=O`: the kinetic solubility was 7.9 µg/mL (≈ 28.5 µM).

`O=C(NCCN1CCOCC1)C(Sc1ccccc1)c1ccccc1` (stereo unspecified) gave a solubility (kinetic) greater than 53.5 µg/mL.

The compound `COc1ccc(C2C(C(C)=O)=C(C)Nc3ncnn32)c(OC)c1OC` (stereo unspecified) had a solubility (kinetic) greater than 51.7 µg/mL.

The compound `CN1CCN(S(=O)(=O)c2ccc(NC(=O)c3ccc([N+](=O)[O-])cc3)cc2)CC1` gave a kinetic solubility of 4.9 µg/mL (≈ 12.1 µM).

`O=[N+]([O-])c1c(NCCCO)cc(Sc2ccc(Cl)cc2)c2nonc12` had a solubility (kinetic) of 18.7 µg/mL (≈ 49.1 µM).

Regarding `Cc1cc(SCC(=O)N2CCCC2=O)nc2ccccc12`, the kinetic solubility is 11.2 µg/mL (≈ 37.3 µM).

The compound `Cc1[nH]c(SCC(=O)c2c(N)n(C)c(=O)n(C)c2=O)nc1Cc1ccccc1` displayed a kinetic solubility greater than 59.9 µg/mL.

As to `Cc1c(C(=O)N2CCN(S(=O)(=O)c3cccs3)CC2)oc2ccc(F)cc12`, the solubility (kinetic) came to 13.6 µg/mL (≈ 33.3 µM).

In the case of `Cc1ccc(N2C(=O)C3CCC(C)(C2=O)C3(C)C)cc1C` (stereo unspecified), the solubility (kinetic) was 32.3 µg/mL (≈ 113 µM).

For the compound `Cc1cc(C)n2nc(SCC(=O)Nc3ccc(F)cc3[N+](=O)[O-])nc2n1`, the solubility (kinetic) was greater than 56.5 µg/mL.

Regarding `Cc1cccc(NC(=O)C(C)C(=O)c2ccccc2)c1` (stereo unspecified), the solubility (kinetic) was 8.5 µg/mL (≈ 31.8 µM).

In the case of `Cn1c(=O)c2c(ncn2CC(=O)Nc2cc(S(=O)(=O)N3CCCCC3)ccc2O)n(C)c1=O`, the solubility (kinetic) is greater than 71.5 µg/mL.

For `CC(OC(=O)C1=COCCO1)C(=O)Nc1ccccc1C#N` (stereo unspecified), the kinetic solubility is 38.8 µg/mL (≈ 128 µM).

In the case of `Cc1ccccc1CCN1CCCC(CN(C)CC(C)(C)C)C1` (stereo unspecified), the solubility (kinetic) worked out at 15 µg/mL (≈ 47.4 µM). This solubility kinetic is about 2.6-fold lower than that of the compound before.

As to `OC1CCN(Cc2cccc3ccccc23)CC1`, the solubility (kinetic) turned out to be 29.3 µg/mL (≈ 121 µM).

As for `CC(C)(C(=O)c1cccnc1)c1cccnc1`, the solubility (kinetic) was greater than 33.9 µg/mL.

`O=C(CSc1ccccn1)Nc1ccc2c(c1)OCCO2` gave a kinetic solubility greater than 45.4 µg/mL.

Compound `CS(=O)(=O)c1ccc2nc(NC(=O)CN3CCOCC3)sc2c1` returned a kinetic solubility of 40.6 µg/mL (≈ 114 µM).

`CN1CCCC(OC(=O)c2cccc(Br)c2)C1.Cl` (stereo unspecified) displayed a solubility (kinetic) greater than 50.2 µg/mL.
